{"source": "ChEMBL document CHEMBL6177982", "about": "“Structural Optimization of Pyrazole Compounds as Hsp90 Regulators with Enhanced Antitumor Activity” (J Med Chem, 2025)", "key": {"[1]": {"assay": "Toxicity in female Balb/c nude mouse xenografted with human HCT-116 cells assessed as pathological changes in heart at 5 to 30 mg/kg, ip administered every two days for 14 days by H and E staining based analysis", "type": "organism-based", "settings": "in vivo, 336 h, dose 5-30 mg/kg, time 14 day"}, "HCT-116 [2]": {"test_system": "HCT-116", "assay": "Inhibition of Myc-tagged HSP90 C598A mutant (unknown origin)/CDC37 (unknown origin) protein-protein interaction transfected in human HCT-116 cells at 0.5 to 5 uM incubated for 12 hrs by co-immunoprecipitation analysis", "type": "cell-based", "settings": "dose 0.5-5 µM"}, "[3]": {"assay": "Selectivity ratio of IC50 for antiproliferative activity against CDC37 knockout human HCT-116 cells to IC50 for antiproliferative activity against human HCT-116 cells", "type": "functional"}, "HCT-116 [4]": {"test_system": "HCT-116", "assay": "Inhibition of Myc-tagged HSP90 C598A mutant (unknown origin)/HSF1 (unknown origin) protein-protein interaction transfected in human HCT-116 cells at 1 to 5 uM incubated for 12 hrs by co-immunoprecipitation analysis", "type": "cell-based", "settings": "dose 1-5 µM"}, "[5]": {"assay": "Toxicity in female Balb/c nude mouse xenografted with human HCT-116 cells assessed as pathological changes in liver at 5 to 30 mg/kg, ip administered every two days for 14 days by H and E staining based analysis", "type": "organism-based", "settings": "in vivo, 336 h, dose 5-30 mg/kg, time 14 day"}, "HCT-116 [6]": {"test_system": "HCT-116", "assay": "Induction of AKT degradation in human HCT-116 cells incubated for 24 hrs by Western blot analysis", "type": "cell-based", "settings": "dose 0.1-5 µM"}, "[7]": {"assay": "Tmax in male Sprague-Dawley rat at 10 mg/kg, IG by LC-MS/MS analysis", "type": "ADME, organism-based", "settings": "in vivo, po"}, "[8]": {"assay": "Toxicity in female Balb/c nude mouse xenografted with human HCT-116 cells assessed as effect on lung weight at 5 to 30 mg/kg, ip administered every two days for 14 days", "type": "organism-based", "settings": "in vivo, 336 h, dose 5-30 mg/kg, time 14 day"}, "[9]": {"assay": "Cmax in male Sprague-Dawley rat at 1 mg/kg, iv by LC-MS/MS analysis", "type": "ADME, organism-based", "settings": "in vivo"}, "[10]": {"assay": "Half-life in male Sprague-Dawley rat at 1 mg/kg, iv by LC-MS/MS analysis", "type": "ADME, organism-based", "settings": "in vivo"}, "[11]": {"assay": "Clearance in male Sprague-Dawley rat at 10 mg/kg, IG by LC-MS/MS analysis", "type": "ADME, organism-based", "settings": "in vivo, po"}, "[12]": {"assay": "Bioavailability in male Sprague-Dawley rat at 5 mg/kg, ip by LC-MS/MS analysis", "type": "ADME, organism-based", "settings": "in vivo"}, "HCT-116 [13]": {"test_system": "HCT-116", "assay": "Antiproliferative activity against human HCT-116 cells assessed as inhibition of cell proliferation incubated for 48 hrs by MTT assay", "type": "functional, cell-based", "settings": "HCT-116, 48 h"}, "[14]": {"assay": "Apparent volume of distribution in male Sprague-Dawley rat at 10 mg/kg, IG by LC-MS/MS analysis", "type": "ADME, organism-based", "settings": "in vivo, po"}, "[15]": {"assay": "Metabolic stability in rat liver microsomes assessed as clearance at 1 uM preincubated for 5 mins followed by NADPH addition and measured up to 120 mins by LC-MS/MS analysis", "type": "ADME, Microsome", "settings": "time < 125 min, read-out: CLH"}, "HCT-116 [16]": {"test_system": "HCT-116", "assay": "Inhibition of Myc-tagged HSP90 (unknown origin)/CDK4 (unknown origin) protein-protein interaction transfected in human HCT-116 cells at 1 to 5 uM incubated for 12 hrs by co-immunoprecipitation analysis", "type": "cell-based", "settings": "dose 1-5 µM"}, "HCT-116 [17]": {"test_system": "HCT-116", "assay": "Upregulation of HSP90 level in human HCT-116 cells at 0.1 to 5 uM incubated for 24 hrs by Western blot analysis", "type": "functional, cell-based", "settings": "dose 0.1-5 µM"}, "[18]": {"assay": "Cmax in male Sprague-Dawley rat at 10 mg/kg, IG by LC-MS/MS analysis", "type": "ADME, organism-based", "settings": "in vivo, po"}, "Homo sapiens": {"species": "Homo sapiens", "assay": "Covalent binding affinity to His-tagged C-terminal HSP90 C598A mutant (unknown origin) assessed as two phase melting curve at 100 uM incubated for 4 hrs by SYPRO fluorescent dye based thermal shift assay"}, "[19]": {"assay": "Tmax in male Sprague-Dawley rat at 5 mg/kg, ip by LC-MS/MS analysis", "type": "ADME, organism-based", "settings": "in vivo"}, "[20]": {"assay": "Toxicity in female Balb/c nude mouse xenografted with human HCT-116 cells assessed as effect on heart weight at 5 to 30 mg/kg, ip administered every two days for 14 days", "type": "organism-based", "settings": "in vivo, 336 h, dose 5-30 mg/kg, time 14 day"}, "[21]": {"assay": "Metabolic stability in human liver microsomes assessed as clearance at 1 uM preincubated for 5 mins followed by NADPH addition and measured up to 120 mins by LC-MS/MS analysis", "type": "ADME, Microsome", "settings": "time < 125 min, read-out: CLH"}, "[22]": {"assay": "Metabolic stability in rat liver microsomes assessed as parent compound remaining at 1 uM preincubated for 5 mins followed by NADPH addition and measured after 30 mins by LC-MS/MS analysis", "type": "ADME, Microsome", "settings": "time 35 min, read-out: Stability"}, "[23]": {"assay": "Metabolic stability in human liver microsomes assessed as terminal elimination half-life at 1 uM preincubated for 5 mins followed by NADPH addition and measured up to 120 mins by LC-MS/MS analysis", "type": "ADME, Microsome", "settings": "time < 125 min, read-out: LambdaZ (converted)"}, "[24]": {"target": "Heat shock protein HSP 90-alpha (Homo sapiens, UniProt P07900)", "assay": "Covalent binding affinity to recombinant full-length HSP90alpha (unknown origin) at C598 residue assessed as appearance of compound-modified peptide incubated for 12 hrs by LC-MS/MS analysis"}, "HCT-116 [25]": {"test_system": "HCT-116", "assay": "Inhibition of Myc-tagged HSP90 C598A mutant (unknown origin)/AKT(unknown origin) protein-protein interaction transfected in human HCT-116 cells at 1 to 5 uM incubated for 12 hrs by co-immunoprecipitation analysis", "type": "cell-based", "settings": "dose 1-5 µM"}, "[26]": {"assay": "Toxicity in female Balb/c nude mouse xenografted with human HCT-116 cells assessed as pathological changes in spleen at 5 to 30 mg/kg, ip administered every two days for 14 days by H and E staining based analysis", "type": "organism-based", "settings": "in vivo, 336 h, dose 5-30 mg/kg, time 14 day"}, "[27]": {"assay": "Metabolic stability in human liver microsomes assessed as parent compound remaining at 1 uM preincubated for 5 mins followed by NADPH addition and measured after 30 mins by LC-MS/MS analysis", "type": "ADME, Microsome", "settings": "time 35 min, read-out: Stability"}, "HCT-116 [28]": {"test_system": "HCT-116", "assay": "Inhibition of Myc-tagged HSP90 (unknown origin)/HSF1 (unknown origin) protein-protein interaction transfected in human HCT-116 cells at 1 to 5 uM incubated for 12 hrs by co-immunoprecipitation analysis", "type": "cell-based", "settings": "dose 1-5 µM"}, "[29]": {"assay": "Toxicity in female Balb/c nude mouse xenografted with human HCT-116 cells assessed as effect on body weight at 5 to 30 mg/kg, ip administered every two days for 14 days", "type": "organism-based", "settings": "in vivo, 336 h, dose 5-30 mg/kg, time 14 day"}, "HCT-116 [30]": {"test_system": "HCT-116", "assay": "Antitumor activity against human HCT-116 cells xenografted in female Balb/c nude mouse assessed as inhibition of tumor growth at 5 to 30 mg/kg, ip administered every two days for 14 days", "type": "functional, organism-based", "settings": "dose 5-30 mg/kg, time 14.0 day"}, "[31]": {"assay": "Toxicity in female Balb/c nude mouse xenografted with human HCT-116 cells assessed as effect on spleen weight at 5 to 30 mg/kg, ip administered every two days for 14 days", "type": "organism-based", "settings": "in vivo, 336 h, dose 5-30 mg/kg, time 14 day"}, "[32]": {"assay": "Bioavailability in male Sprague-Dawley rat at 10 mg/kg, IG by LC-MS/MS analysis", "type": "ADME, organism-based", "settings": "in vivo, po"}, "Mus musculus": {"test_system": "Mus musculus", "assay": "In vivo induction of CDK4 degradation in female Balb/c nude mouse xenografted with human HCT-116 cells assessed as decrease in CDK4 protein level in tumor at 5 to 30 mg/kg, ip administered every two days for 14 days by Western blot analysis", "type": "functional, organism-based", "settings": "dose 5-30 mg/kg, time 14.0 day"}, "SK-BR-3": {"test_system": "SK-BR-3", "assay": "Antiproliferative activity against human SK-BR-3 cells assessed as inhibition of cell proliferation incubated for 72 hrs by MTT assay", "type": "functional, cell-based", "settings": "SK-BR-3, 72 h"}}, "note": "Activity calls are given as the source filed them. No cut-off for these calls is given here.", "data": [{"smiles": "O=S(=O)(/C=C/c1cn(-c2ccccc2)nc1-c1cccnc1)c1ccccc1", "values": [{"measurement": "Activity", "setting": "[1]", "result": "Non-toxic"}, {"measurement": "inhibition", "setting": "HCT-116 [2]", "result": "inactive"}, {"measurement": "Ratio IC50", "setting": "[3]", "result": ">50"}, {"measurement": "inhibition", "setting": "HCT-116 [4]", "result": "inactive"}, {"measurement": "Activity", "setting": "[5]", "result": "Non-toxic"}, {"measurement": "Activity", "setting": "HCT-116 [6]", "result": "Dose-dependent-effect"}, {"measurement": "Tmax", "setting": "[7]", "result": 52.8, "unit": "min"}, {"measurement": "Activity", "setting": "[8]", "result": "Non-toxic"}, {"measurement": "Cmax", "setting": "[9]", "result": 3680, "unit": "ng/mL"}, {"measurement": "half-life", "setting": "[10]", "result": 50.4, "unit": "min"}, {"measurement": "CL/F", "setting": "[11]", "result": 18, "unit": "mL/min/kg"}, {"measurement": "bioavailability", "setting": "[12]", "result": 92.5, "unit": "%"}, {"measurement": "IC50", "setting": "HCT-116 [13]", "result": 4.18, "unit": "µM"}, {"measurement": "Vz", "setting": "[14]", "result": 3.18, "unit": "L/kg"}, {"measurement": "microsomal CLint at 1 µM", "setting": "[15]", "result": 55, "unit": "µL/min/mg"}, {"measurement": "inhibition", "setting": "HCT-116 [16]", "result": "Active"}, {"measurement": "Activity", "setting": "HCT-116 [17]", "result": "inactive"}, {"measurement": "Cmax", "setting": "[18]", "result": 2400, "unit": "ng/mL"}, {"measurement": "Activity", "setting": "Homo sapiens", "result": "inactive"}, {"measurement": "Tmax", "setting": "[19]", "result": 8.4, "unit": "min"}, {"measurement": "Activity", "setting": "[20]", "result": "Non-toxic"}, {"measurement": "microsomal CLint at 1 µM", "setting": "[21]", "result": 26, "unit": "µL/min/mg"}, {"measurement": "remaining at 0.5 h, 1 µM", "setting": "[22]", "result": 58, "unit": "%"}, {"measurement": "half-life at 1 µM", "setting": "[23]", "result": 53.4, "unit": "min"}, {"measurement": "Activity", "setting": "[24]", "result": "Active"}, {"measurement": "inhibition", "setting": "HCT-116 [25]", "result": "inactive"}, {"measurement": "Activity", "setting": "[26]", "result": "Non-toxic"}, {"measurement": "remaining at 0.5 h, 1 µM", "setting": "[27]", "result": 64, "unit": "%"}, {"measurement": "inhibition", "setting": "HCT-116 [28]", "result": "inactive"}, {"measurement": "Activity", "setting": "[29]", "result": "Non-toxic"}, {"measurement": "Activity", "setting": "HCT-116 [30]", "result": "Active"}, {"measurement": "Activity", "setting": "[31]", "result": "Non-toxic"}, {"measurement": "bioavailability", "setting": "[32]", "result": 67.2, "unit": "%"}, {"measurement": "Activity", "setting": "Mus musculus", "result": "Active"}, {"measurement": "IC50", "setting": "SK-BR-3", "result": 1.99, "unit": "µM"}]}]}
